Measured values reported in PubChem BioAssay (NCI).
“And” between values parts separate entries of the source, which are not always exact repeats. Identical values can stand only once.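 Cells were grown in 96-well plates and exposed to each compound for 48 hours at five concentrations; endpoints were interpolated linearly between bracketing concentrations, or set to the highest concentration if not reached. GI50 marks 50% less growth. At the TGI there is no net growth.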

tested on: SF-539 CNS; assay: NCI tumour cell line growth inhibition, 48 h

Compound | TGI | GI50
COC(=O)CC(c1ccccc1)C1(c2ccccc2)SCCS1 (stereo unspecified) | > 290 µM | 
CCOC(=O)C1=C(C(=O)OCC)C2c3ccccc3C=CN2C(C(=O)OCC)=C(SC)S1 (stereo unspecified) | > 100 µM | 
CCCCCC[C@@H]1CCC2C(CO)[C@@H](O)CC[C@@H]2C1 (stereo partly specified) | 33.1 µM | 
CCN(Cc1ccc(F)cc1)c1cc(Cl)c(CO)c(Cl)c1 | 30.4 µM | 16.2 µM
COc1cc(-c2ccc3cc(OC)c(OC)c(OC)c3c2)cc(OC)c1OC | > 100 µM | 23.6 µM
S=c1sc2c(n1-c1ccccc1)NC=NC2S (stereo unspecified) | > 100 µM | 
Cc1csc(-c2nnc(Nc3ccc(Oc4ncccc4-c4ccnc(N)n4)cc3)c3ccccc23)c1 | > 100 µM | > 100 µM
Cc1ccc(/C=C/C(=O)CCN(C)C)cc1 | 31.3 µM | 
COc1cc(C2CC(C)(O)Oc3cc4c(cc32)OCO4)cc(OC)c1OC (stereo unspecified) | 0.518 µM | 
CCCCCCCCCCn1cc[n+](C)c1 | 13.5 µM | 2.51 µM
CC1SC(c2ccc(F)cc2)N(NC(=O)C(O)c2ccccc2)C1=O (stereo unspecified) | > 100 µM | > 100 µM
O=C(Oc1ccc(Cl)cc1)c1ccccc1Nc1ccnc(C(F)(F)F)c1 | 32.7 µM | 15 µM
Cc1cc2c(C)[nH]nc2c(C(=O)O)c1C | > 100 µM | 
Nc1n[nH]c2cccc(C#Cc3cccc(C(=O)Nc4ccc(CN5CCOCC5)c(C(F)(F)F)c4)c3)c12 | 3.47 µM | 1.05 µM
COc1ccc(-c2cn[nH]c2-c2cc(OC)c(OC)c(OC)c2)cc1 | 0.0566 µM | 0.0218 µM
Nc1ccccc1SC(CC(=O)c1ccccc1)c1cccc([N+](=O)[O-])c1 (stereo unspecified) | 30.7 µM | 16.8 µM

Compound | TGI | GI50
O=C(/C=C/c1ccc([N+](=O)[O-])cc1)c1ccc(NCc2nc3ccccc3[nH]2)cc1 | 8.08 µM | 
COc1ccc2nc(NC(=O)CSc3nnc4n3S(=O)(=O)c3ccccc3N4c3ccccc3)sc2c1 | > 100 µM | > 100 µM
O=C1NC(=NC(CO)Cc2ccccc2)S/C1=C\c1ccc2ncccc2c1 (stereo unspecified) | > 25 µM and 10.1 µM | 11.9 µM and 2.73 µM
COC(=O)C(CCCN1C(=O)c2ccccc2C1=O)C(=O)OC | > 100 µM | 
COc1nc(NC2OC(COC(C)=O)C(OC(C)=O)C(OC(C)=O)C2OC(C)=O)c2c(OC(C)=O)cc(=O)oc2n1 (stereo unspecified) | > 100 µM | 
Nc1cc(NN=C(c2ccc(O)cc2)c2ccc(O)cc2)c([N+](=O)[O-])cc1[N+](=O)[O-] | 3.85 µM | 1.7 µM
Nc1c(C(=O)Nc2cccc(C(F)(F)F)c2)sc2nc3c(cc12)CCCCC3 | 4.48 µM | 1.94 µM
CCCCN(CCCC)C(=O)C(=O)C(C(=O)c1ccc(OC)cc1)c1ccc(OC)cc1 (stereo unspecified) | > 100 µM | 
C=C(C)CCOC(c1ccccc1)(c1ccccc1)c1ccccc1 | > 100 µM | 
COc1ccc(C)cc1-c1cc(Sc2ccccc2)c(-c2cc(C)ccc2OC)o1 | > 31.6 µM | 
CC(=O)O/N=C(/C)c1ccccc1O | > 100 µM | 
CC1(C)OC1COc1c2occc2cc2ccc(=O)oc12 (stereo unspecified) | > 100 µM | 
CCCCCCCCCCCCC(O)c1ccc(C#CCCCCCCCCCO)o1 (stereo unspecified) | 36.8 µM | 21.1 µM
COc1ccc(CCN=C2NC(=O)/C(=C/c3ccc4ncccc4c3)S2)cc1 | > 25 µM | > 25 µM
CN(C)CCn1c2c3ccccc3ccc2c2oc(=O)c3ccccc3c21 | 7.1 µM | 

tested on: SK-MEL-2 melanoma; assay: NCI tumour cell line growth inhibition, 48 h

Compound | TGI | GI50
COC(=O)CC(c1ccccc1)C1(c2ccccc2)SCCS1 (stereo unspecified) | > 290 µM | 
CCOC(=O)C1=C(C(=O)OCC)C2c3ccccc3C=CN2C(C(=O)OCC)=C(SC)S1 (stereo unspecified) | > 100 µM | 
CCCCCC[C@@H]1CCC2C(CO)[C@@H](O)CC[C@@H]2C1 (stereo partly specified) | 43.3 µM | 
CCN(Cc1ccc(F)cc1)c1cc(Cl)c(CO)c(Cl)c1 | 29.5 µM | 15 µM
COc1cc(-c2ccc3cc(OC)c(OC)c(OC)c3c2)cc(OC)c1OC | > 100 µM | 16.6 µM
S=c1sc2c(n1-c1ccccc1)NC=NC2S (stereo unspecified) | > 100 µM | 
Cc1csc(-c2nnc(Nc3ccc(Oc4ncccc4-c4ccnc(N)n4)cc3)c3ccccc23)c1 | > 26.9 µM | 2.71 µM
CC1SC(c2ccc(F)cc2)N(NC(=O)C(O)c2ccccc2)C1=O (stereo unspecified) | > 100 µM | > 100 µM
O=C(Oc1ccc(Cl)cc1)c1ccccc1Nc1ccnc(C(F)(F)F)c1 | > 100 µM | 20.2 µM
Cc1cc2c(C)[nH]nc2c(C(=O)O)c1C | > 100 µM | 
Nc1n[nH]c2cccc(C#Cc3cccc(C(=O)Nc4ccc(CN5CCOCC5)c(C(F)(F)F)c4)c3)c12 | 5.81 µM | 2.07 µM
COc1ccc(-c2cn[nH]c2-c2cc(OC)c(OC)c(OC)c2)cc1 | 21.5 µM | 0.0317 µM
Nc1ccccc1SC(CC(=O)c1ccccc1)c1cccc([N+](=O)[O-])c1 (stereo unspecified) | 35.8 µM | 20.6 µM
O=C(/C=C/c1ccc([N+](=O)[O-])cc1)c1ccc(NCc2nc3ccccc3[nH]2)cc1 | 29.7 µM | 
O=c1ccc2ccccc2cc1[O-].O=c1ccc2ccccc2cc1[O-].[O]=[U+2]=[O] | 38.1 µM | 11.7 µM
O=C1NC(=NC(CO)Cc2ccccc2)S/C1=C\c1ccc2ncccc2c1 (stereo unspecified) | > 25 µM and 12.4 µM | 10.1 µM and 4.32 µM
COC(=O)C(CCCN1C(=O)c2ccccc2C1=O)C(=O)OC | > 100 µM | 
COc1nc(NC2OC(COC(C)=O)C(OC(C)=O)C(OC(C)=O)C2OC(C)=O)c2c(OC(C)=O)cc(=O)oc2n1 (stereo unspecified) | > 100 µM | 
CC(C)(C)c1cc2c(O)c3cccc4c(=O)c5cccc6c5-c(c34)c2c(c1)c6=O | > 100 µM | 
Nc1c(C(=O)Nc2cccc(C(F)(F)F)c2)sc2nc3c(cc12)CCCCC3 | 19.3 µM | 3.16 µM
CCCCN(CCCC)C(=O)C(=O)C(C(=O)c1ccc(OC)cc1)c1ccc(OC)cc1 (stereo unspecified) | > 100 µM | 
CC(=O)O/N=C(/C)c1ccccc1O | > 100 µM | 
CC1(C)OC1COc1c2occc2cc2ccc(=O)oc12 (stereo unspecified) | > 100 µM | 
CCCCCCCCCCCCC(O)c1ccc(C#CCCCCCCCCCO)o1 (stereo unspecified) | 81 µM | 26.4 µM
COc1ccc(CCN=C2NC(=O)/C(=C/c3ccc4ncccc4c3)S2)cc1 | > 25 µM | > 25 µM
CN(C)CCn1c2c3ccccc3ccc2c2oc(=O)c3ccccc3c21 | 35 µM | 

tested on: SF-268 CNS; assay: NCI tumour cell line growth inhibition, 48 h

Compound | TGI | GI50
COC(=O)CC(c1ccccc1)C1(c2ccccc2)SCCS1 (stereo unspecified) | > 290 µM | 
CCOC(=O)C1=C(C(=O)OCC)C2c3ccccc3C=CN2C(C(=O)OCC)=C(SC)S1 (stereo unspecified) | > 100 µM | 
CCCCCC[C@@H]1CCC2C(CO)[C@@H](O)CC[C@@H]2C1 (stereo partly specified) | 32.6 µM | 
CCN(Cc1ccc(F)cc1)c1cc(Cl)c(CO)c(Cl)c1 | 27.7 µM | 13.6 µM
NC(=O)c1ccccc1NC(=O)C(=O)C(C(=O)c1ccc(Cl)c(Cl)c1)C1OC(=O)c2ccccc21 (stereo unspecified) | > 100 µM | 
COc1cc(-c2ccc3cc(OC)c(OC)c(OC)c3c2)cc(OC)c1OC | > 100 µM | 24 µM
S=c1sc2c(n1-c1ccccc1)NC=NC2S (stereo unspecified) | > 100 µM | 
Cc1ccc(/C=C/C(=O)CCN(C)C)cc1 | 47.5 µM | 
COc1cc(C2CC(C)(O)Oc3cc4c(cc32)OCO4)cc(OC)c1OC (stereo unspecified) | > 100 µM | 
CCCCCCCCCCn1cc[n+](C)c1 | 18.3 µM | 3.77 µM
CC1SC(c2ccc(F)cc2)N(NC(=O)C(O)c2ccccc2)C1=O (stereo unspecified) | > 100 µM | > 100 µM
O=C(Oc1ccc(Cl)cc1)c1ccccc1Nc1ccnc(C(F)(F)F)c1 | 17.4 µM | 4.32 µM
Nc1n[nH]c2cccc(C#Cc3cccc(C(=O)Nc4ccc(CN5CCOCC5)c(C(F)(F)F)c4)c3)c12 | 13.3 µM | 2.72 µM
COc1ccc(-c2cn[nH]c2-c2cc(OC)c(OC)c(OC)c2)cc1 | 31.5 µM | 0.0795 µM
Nc1ccccc1SC(CC(=O)c1ccccc1)c1cccc([N+](=O)[O-])c1 (stereo unspecified) | 31.3 µM | 16.3 µM
O=C(/C=C/c1ccc([N+](=O)[O-])cc1)c1ccc(NCc2nc3ccccc3[nH]2)cc1 | 26.6 µM | 
COc1ccc2nc(NC(=O)CSc3nnc4n3S(=O)(=O)c3ccccc3N4c3ccccc3)sc2c1 | > 100 µM | > 100 µM
